Experiments:
Format in all cases: cell-based
[1] = system: C. fascicularis suspension culture; assay: Differential induction of EGCG in Crassula fascicularis suspension culture (HPLC); conditions: B49 medium, treated on day 7 following subculture
Protocol: Differential induction of catechins in the C. fascicularis suspension culture was performed in 500 mL conical flasks containing 190 mL of either growth medium B105 (modified Gamborg's B5 medium containing 2,4-D (1 mg/L), kinetin (0.1 mg/L), coconut water (100 mL/L), glutamine (10 mM), and 3% sucrose) or a secondary metabolite production medium B49 (Gamborg's B5, 5% sucrose, no hormones), inoculated with 70 mL of 14 day old suspension culture. Cultures were grown for 14 days before harvest and processing. Further cultures grown on production medium B49 were treated using one of each of the following protocols:
(4) A 40 mL aliquot of a day 0 suspension growing on B105 medium was transferred to a 100 mL flask. On day 3, a sterile solution of 5-azacytidine (5-AC) in water was added for a final concentration of 3×10^−5 M, and the resultant mixture was incubated for 11 days. At this point the 40 mL 5-AC-treated culture was subcultured twice before inoculating 190 mL B49 production medium in a 500 mL flask with 70 mL of day 14 suspension. The culture was then treated further according to protocol (2). […]
Lyophilized biomass from 100 mL plant cell culture was extracted three times with 10 mL of boiling aqueous 0.2 M NaH2PO4 solution (total 30 mL). The combined, cooled, extracts were extracted with EtOAc (2×30 mL). The combined EtOAc extracts were then dried under a stream of nitrogen. The samples were dissolved in 50% aqueous acetonitrile at a concentration of 1.0 mg/mL; a 0.1 mL aliquot was transferred into a 0.25 mL glass insert to a 2 mL HPLC vial. The extraction procedure is scalable according to the initial volume of the plant-cell culture used to generate the biomass.
HPLC analyses of compounds in plant cell culture extracts were performed in two systems. System 1 (S1) utilized a Rainin Dynamax SD-200 pumping system, a Varian Dynamax PDA-2 diode array detector, with a Waters XTerra RP 18 (5 μm, 3.0×150 mm) column. The mobile phase was composed from 0.1% acetic acid in H2O (solvent A) and 0.1% acetic acid in acetonitrile (solvent B), at a flow rate of 0.75 mL/min: after maintaining initial conditions (A:B, 95:5) for one minute post-injection, gradient elution was accomplished in a linear fashion over 30 min (to A:B, 40:60). A total of 10 μL of each sample was injected onto the column and eluates were analyzed at a wavelength of 275 nm. System 2 (S2) utilized API-electrospray-LC-MS: a Hewlett Packard series HP1100 with a Waters Xterra RP18 (3.5 μm, 2.1×100 mm) column was used as the inlet for a Micromass Platform-LC, in the positive-ion mode. […] Compounds of interest were detected at 254 nm and as single-charged species via selected-ion monitoring in the mass spectrometer. […]

[2] = system: C. barkleyi suspension culture; assay: Differential induction of catechin accumulation in Crassula barkleyi suspension culture; conditions: B49 medium, treated seven days after inoculation, sampled for 17 days
Protocol: Differential induction of catechin derivatives in the C. barkleyi suspension culture was performed in 250 mL conical flasks containing 100 mL of a secondary metabolite production medium B49 (Gamborg's B5, with 5% sucrose, and no hormones), inoculated with 16 mL of 14 day old suspension culture. The cultures were incubated under low light conditions (approximately 30 lux) at 25° C. for seven days after inoculation. Cultures were then treated using one of each of the following protocols (untreated cultures were also maintained as controls):
(2) Autoclaved aqueous 2,4-D (1 mg/L final concentration) was added;
(4) Filter-sterilized aqueous DL-phenylalanine (200 mg/L) was added;
(6) Filter-sterilized aqueous zeatin (10 μM) was added;
(7) Filter-sterilized aqueous 1-aminocyclopropane-1-carboxylic acid (10 mg/L final concentration) was added;
(8) Filter-sterilized 24-epibrassinolide (1 mg/L final concentration) was added;
(9) Incubation at a temperature of 16° C.; or (10) High light regime (approximately 160 lux).
(§1) Ten milliliter culture samples were taken at regular intervals for 17 days following the day of subculture to B49 medium. All culture samples were centrifuged for five minutes at 4000 rpm, and the cell residue was freeze-dried. Extraction, sample preparation, and HPLC analysis were performed as described in Example 1.

[3] = system: C. dejecta suspension culture; assay: Differential induction of catechin accumulation in Crassula dejecta suspension culture; conditions: cultures grown on B105, added at day 7
Protocol: Differential induction of catechin derivatives in the C. dejecta suspension culture was performed in 250 mL conical flasks containing 100 mL of B105 growth medium or 100 mL of a secondary metabolite production medium B49 (Gamborg's B5, with 5% sucrose, and no hormones), inoculated with 40 mL of 21 day old suspension culture. The cultures were incubated under low light conditions (approximately 30 lux) at 25° C. Cultures were treated using one of each of the following protocols:
(1) B105 growth medium (no additions) used as is;
(3) Filter-sterilized aqueous zeatin (10 μM) was added at day 7 to a culture grown on B105 medium;
(4) B49 production medium (no additions) used as is;
as §1, with “(6) Filter-sterilized clofibrate (0.5 mM final concentration) was added at day 7 to a culture grown on B49 medium. Ten” for “Ten”, “milliliters of” for “milliliter”, “to B105 or” for “to”

Row | SMILES | EGCG (mg/gdwt) two days after treatment [1] [mg/gdwt] | catechin biosynthesis and EGCG accumulation [2] | induction of catechin, gallocatechin, and EGCG [3]
1 | CCOC(=O)C(C)(C)Oc1ccc(Cl)cc1 [Clofibrate] | 89 | – | –
2 | O=C(O)c1cc(O)c(O)c(O)c1 [gallic acid] | 82 | – | –
3 | O=C(O)COc1ccc(Cl)cc1Cl [2,4-D, 2,4-dichlorophenoxyacetic acid] | – | suppressed catechin biosynthesis | –
4 | O.O.O.O.O.O.O.O=S(=O)([O-])[O-].[Fe+2] [FeSO4.7H2O] | 90 | – | –
5 | C/C(=C\CNc1ncnc2[nH]cnc12)CO [zeatin] | – | induced catechin biosynthesis and EGCG accumulation | induced catechin, gallocatechin, and EGCG
6 | CC(C)[C@@H](C)[C@@H](O)[C@H](O)[C@@H](C)[C@H]1CC[C@H]2[C@@H]3COC(=O)[C@H]4C[C@H](O)[C@H](O)C[C@]4(C)[C@H]3CC[C@]12C [24-epibrassinolide] | – | induced catechin biosynthesis and EGCG accumulation | –

— patent US20030175678A1, “Methods for identifying genes regulating desired cell phenotypes” (priority 2001, published 2003)
